Data: patent US20230146675A1, “PYRIMIDO[5,4-d]PYRIMIDINE DERIVATIVES AS ENT INHIBITORS FOR THE TREATMENT OF CANCERS, AND COMBINATION THEREOF WITH ADENOSINE RECEPTOR ANTAGONISTS” (ITEOS BELGIUM SA, priority 2020, published 2023)

Molecular target: T1, human ENT1 (Homo sapiens, UniProt Q99808)
T1 sequence (Q99808 1-456): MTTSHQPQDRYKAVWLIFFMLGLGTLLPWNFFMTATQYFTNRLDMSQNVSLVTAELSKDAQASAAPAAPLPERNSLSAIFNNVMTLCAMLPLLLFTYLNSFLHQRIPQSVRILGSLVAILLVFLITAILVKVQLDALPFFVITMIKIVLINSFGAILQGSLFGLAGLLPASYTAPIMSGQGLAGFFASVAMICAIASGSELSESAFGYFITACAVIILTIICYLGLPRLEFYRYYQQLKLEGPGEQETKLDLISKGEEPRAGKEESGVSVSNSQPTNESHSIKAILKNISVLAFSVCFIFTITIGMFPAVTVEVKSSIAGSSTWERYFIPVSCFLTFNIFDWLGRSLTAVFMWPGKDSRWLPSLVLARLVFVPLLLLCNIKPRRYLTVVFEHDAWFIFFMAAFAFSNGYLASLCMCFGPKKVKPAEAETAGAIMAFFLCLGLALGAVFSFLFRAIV
Assay: ENT1 binding assay (competition with Sahenta-DY647 on JAR cells)
Parameters: JAR cells expressing ENT1 were bought from ATCC; host or cells: JAR cells
Conditions: binned IC50
In short: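 JAR cells were incubated with test compounds and the fluorescent ligand Sahenta-DY647 in competition. Plates were washed twice by centrifugation (4 min, 400 rcf, 4 °C). Binding potency was derived from the final fluorescence.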

Row | Compound | IC50 [nM]
1 | COCCN(CCOC)c1nc(N2CCS(=O)(=O)CC2)c2nc(N(CCOC)CCOC)nc(N3CCN(c4ncn(C)n4)CC3)c2n1 [Compound 217, 4-(2,6-bis(bis(2-methoxyethyl)amino)-8-(4-(1-methyl-1H-1,2,4-triazol-3-yl)piperazin-1-yl)pyrimido[5,4-d]pyrimidin-4-yl)thiomorpholine 1,1-dioxide] | 100 to 500
2 | COCCN(CCOC)c1nc(N2CCOC(C)C2)c2nc(N(CCOC)CCOC)nc(N3CCC(OC)CC3)c2n1 (stereo not shown) [Compound 87, N2,N2,N6,N6-tetrakis(2-methoxyethyl)-4-(4-methoxypiperidin-1-yl)-8-(2-methylmorpholino)pyrimido[5,4-d]pyrimidine-2,6-diamine] | 100 to 500
3 | COCCN(Cc1ccc(C(=O)O)c(F)c1)c1nc(N2CCN(C)C(=O)C2)c2nc(N(CCOC)CCOC)nc(N3CCC(OC)CC3)c2n1 [Compound 336, 4-(((6-(bis(2-methoxyethyl)amino)-8-(4-methoxypiperidin-1-yl)-4-(4-methyl-3-oxopiperazin-1-yl)pyrimido[5,4-d]pyrimidin-2-yl)(2-methoxyethyl)amino)methyl)-2-fluorobenzoic acid] | < 100
4 | COCCN(CCOC)c1nc(N2CCN(C)C(=O)C2)c2nc(N(CCOC)CCOC)nc(N(C)Cc3ccc(F)c(C#N)c3)c2n1 [Compound 238, 5-(((2,6-bis(bis(2-methoxyethyl)amino)-8-(4-methyl-3-oxopiperazin-1-yl)pyrimido[5,4-d]pyrimidin-4-yl)(methyl)amino)methyl)-2-fluorobenzonitrile] | < 100
5 | COCCN(CCOC)c1nc(N2CCC(OC)CC2)c2nc(N(CCOC)CCOC)nc(NCc3cccc(-n4cccn4)c3)c2n1 [Compound 146, N4-(3-(1H-pyrazol-1-yl)benzyl)-N2,N2,N6,N6-tetrakis(2-methoxyethyl)-8-(4-methoxypiperidin-1-yl)pyrimido[5,4-d]pyrimidine-2,4,6-triamine] | 100 to 500
6 | COCCNc1nc(N(CCOC)CCOC)nc2c(N3CCC(OC)CC3)nc(N(CCOC)CCOC)nc12 [Compound 128, N2,N2,N4,N6,N6-pentakis(2-methoxyethyl)-8-(4-methoxypiperidin-1-yl)pyrimido[5,4-d]pyrimidine-2,4,6-triamine] | 500 to 1000
7 | COCCN(CCOC)c1nc(N2CCN(c3ncn(C)n3)CC2)c2nc(N(CCOC)CCOC)nc(N3CCC(OC)CC3)c2n1 [Compound 196, N2,N2,N6,N6-tetrakis(2-methoxyethyl)-4-(4-methoxypiperidin-1-yl)-8-(4-(1-methyl-1H-1,2,4-triazol-3-yl)piperazin-1-yl)pyrimido[5,4-d]pyrimidine-2,6-diamine] | 100 to 500
8 | COCCN(CCOC)c1nc(N2CCN(c3ncn(C)n3)CC2)c2nc(N(CCOC)CCOC)nc(NCc3cccc(C(N)=O)c3)c2n1 [Compound 229, 3-(((2,6-bis(bis(2-methoxyethyl)amino)-8-(4-(1-methyl-1H-1,2,4-triazol-3-yl)piperazin-1-yl)pyrimido[5,4-d]pyrimidin-4-yl)amino)methyl)benzamide] | 100 to 500
9 | COCCN(CCOC)c1nc(NCc2cccc(C#N)c2)c2nc(N(CCO)CCO)nc(N3CCC(OC)CC3)c2n1 [Compound 325, 3-(((6-(bis(2-hydroxyethyl)amino)-2-(bis(2-methoxyethyl)amino)-8-(4-methoxypiperidin-1-yl)pyrimido[5,4-d]pyrimidin-4-yl)amino)methyl)benzonitrile] | < 100
10 | COC(C)CN(CC(C)OC)c1nc(N2CCC(OC)CC2)c2nc(N(CCO)CCO)nc(N3CCN(C)C(=O)C3)c2n1 (stereo not shown) [Compound 328, 4-(2-(bis(2-hydroxyethyl)amino)-6-(bis(2-methoxypropyl)amino)-8-(4-methoxypiperidin-1-yl)pyrimido[5,4-d]pyrimidin-4-yl)-1-methylpiperazin-2-one] | 100 to 500

Other lines, results leading:

Row | IC50 [nM] | Compound
11 | < 100 | COCCN(CCOC)c1nc(N2CCc3oc(C)nc3C2)c2nc(N(CCOC)Cc3ccc(C(=O)O)cc3)nc(N3CCN(C)C(=O)C3)c2n1 [Compound 335, 4-(((6-(bis(2-methoxyethyl)amino)-4-(4-methyl-3-oxopiperazin-1-yl)-8-(2-methyl-6,7-dihydrooxazolo[4,5-c]pyridin-5(4H)-yl)pyrimido[5,4-d]pyrimidin-2-yl)(2-methoxyethyl)amino)methyl)benzoic acid]
12 | < 100 | COCCN(CCOC)c1nc(N2CCN(c3ncn(C)n3)CC2)c2nc(N(CCOC)CCOC)nc(NCc3cccc(OC(F)(F)F)c3)c2n1 [Compound 223, N2,N2,N6,N6-tetrakis(2-methoxyethyl)-8-(4-(1-methyl-1H-1,2,4-triazol-3-yl)piperazin-1-yl)-N4-(3-(trifluoromethoxy)benzyl)pyrimido[5,4-d]pyrimidine-2,4,6-triamine]
13 | < 100 | COCCN(CCOC)c1nc(N2CC(=O)N(C)C(=O)C2)c2nc(N(CCO)CCO)nc(N3CCC(OC)CC3)c2n1 [Compound 308, 4-(6-(bis(2-hydroxyethyl)amino)-2-(bis(2-methoxyethyl)amino)-8-(4-methoxypiperidin-1-yl)pyrimido[5,4-d]pyrimidin-4-yl)-1-methylpiperazine-2,6-dione]
14 | 100 to 500 | COCCN(CCOC)c1nc(N2CCN(C)C(=O)C2)c2nc(N3CCn4ccnc4C3)nc(N3CCC(OC)CC3)c2n1 [Compound 296, 4-(2-(bis(2-methoxyethyl)amino)-6-(5,6-dihydroimidazo[1,2-a]pyrazin-7(8H)-yl)-8-(4-methoxypiperidin-1-yl)pyrimido[5,4-d]pyrimidin-4-yl)-1-methylpiperazin-2-one]
15 | < 100 | COCCN(CCOC)c1nc(N2CCC(OC)CC2)c2nc(N(CCOC)CCOC)nc(OCc3ccc(Cl)c(Cl)c3)c2n1 [Compound 154, 4-((3,4-dichlorobenzyl)oxy)-N2,N2,N6,N6-tetrakis(2-methoxyethyl)-8-(4-methoxypiperidin-1-yl)pyrimido[5,4-d]pyrimidine-2,6-diamine]
16 | < 100 | COCCN(CCOC)c1nc(N2CCC(OC)CC2)c2nc(N(CCOC)CCOC)nc(NCc3ccccc3)c2n1 [Compound 49, N4-benzyl-N2,N2,N6,N6-tetrakis(2-methoxyethyl)-8-(4-methoxypiperidin-1-yl)pyrimido[5,4-d]pyrimidine-2,4,6-triamine]
17 | < 100 | COCCN(CCOC)c1nc(N2CCN(c3ncn(C)n3)CC2)c2nc(N(CCOC)CCOC)nc(NCc3cccc(C#N)c3)c2n1 [Compound 224, 3-(((2,6-bis(bis(2-methoxyethyl)amino)-8-(4-(1-methyl-1H-1,2,4-triazol-3-yl)piperazin-1-yl)pyrimido[5,4-d]pyrimidin-4-yl)amino)methyl)benzonitrile]
18 | 100 to 500 | COCCN(CCOC)c1nc(N2CCC(OC)CC2)c2nc(N(CCOC)CCOC)nc(N3CCC(C#N)CC3)c2n1 [Compound 90, 1-(2,6-bis(bis(2-methoxyethyl)amino)-8-(4-methoxypiperidin-1-yl)pyrimido[5,4-d]pyrimidin-4-yl)piperidine-4-carbonitrile]
19 | 100 to 500 | COCCN(CCOC)c1nc(N2CCN(c3ncn(C)n3)CC2)c2nc(N(CCOC)CCOC)nc(NCc3cccc(S(N)(=O)=O)c3)c2n1 [Compound 228, 3-(((2,6-bis(bis(2-methoxyethyl)amino)-8-(4-(1-methyl-1H-1,2,4-triazol-3-yl)piperazin-1-yl)pyrimido[5,4-d]pyrimidin-4-yl)amino)methyl)benzenesulfonamide]
20 | 100 to 500 | COCCN(CCOC)c1nc(N2CCN(c3nc(C)ns3)CC2)c2nc(N(CCOC)CCOC)nc(N3CCC(OC)CC3)c2n1 [Compound 123, N2,N2,N6,N6-tetrakis(2-methoxyethyl)-4-(4-methoxypiperidin-1-yl)-8-(4-(3-methyl-1,2,4-thiadiazol-5-yl)piperazin-1-yl)pyrimido[5,4-d]pyrimidine-2,6-diamine]
21 | < 100 | COCCN(CCOC)c1nc(N2CCC(OC)CC2)c2nc(N(CCOC)CCOC)nc(N3CCC(F)CC3)c2n1 [Compound 108, 4-(4-fluoropiperidin-1-yl)-N2,N2,N6,N6-tetrakis(2-methoxyethyl)-8-(4-methoxypiperidin-1-yl)pyrimido[5,4-d]pyrimidine-2,6-diamine]
22 | < 100 | COCCN(CCOC)c1nc(N2CCn3nccc3C2)c2nc(N(CCOC)CCOC)nc(N3CCN(C)C(=O)C3)c2n1 [Compound 260, 4-(2,6-bis(bis(2-methoxyethyl)amino)-8-(6,7-dihydropyrazolo[1,5-a]pyrazin-5(4H)-yl)pyrimido[5,4-d]pyrimidin-4-yl)-1-methylpiperazin-2-one]
23 | 100 to 500 | CCCN(C)c1nc(N(CCOC)CCOC)nc2c(N3CCn4ncnc4C3)nc(N(CCOC)CCOC)nc12 [Compound 10, 8-(5,6-dihydro-[1,2,4]triazolo[1,5-a]pyrazin-7(8H)-yl)-N2,N2,N6,N6-tetrakis(2-methoxyethyl)-N4-methyl-N4-propylpyrimido[5,4-d]pyrimidine-2,4,6-triamine]
24 | 500 to 1000 | COCCN(CCOC)c1nc(N2CCN(c3nnc(C)o3)CC2)c2nc(N(CCOC)CCOC)nc(N3CCC(OC)CC3)c2n1 [Compound 135, N2,N2,N6,N6-tetrakis(2-methoxyethyl)-4-(4-methoxypiperidin-1-yl)-8-(4-(5-methyl-1,3,4-oxadiazol-2-yl)piperazin-1-yl)pyrimido[5,4-d]pyrimidine-2,6-diamine]
25 | < 100 | COCCN(CCOC)c1nc(NCc2cccc(F)c2)c2nc(N(CCO)CCO)nc(N3CCC(OC)CC3)c2n1 [Compound 324, 2,2′-((6-(bis(2-methoxyethyl)amino)-8-((3-lluorobenzyl)amino)-4-(4-methoxypiperidin-1-yl)pyrimido[5,4-d]pyrimidin-2-yl)azanediyl)bis(ethan-1-ol)]
